Key:
Type in all cases: in vivo
winter wheat, TRZAW [1] = assay: Method D: safener seed treatment, herbicide and safener tank mix pre-emergence, greenhouse crop damage test; conditions: no herbicide
Description: (§1) For the safener seed treatment, sufficient seeds were weighed into screw top glass bottles approximately twice the volume of the seeds.
(§2) The safener (mefenpyr-diethyl, formulated as suspension concentrate (SC)) was weighed out so that the required rates (g a.i./kg seed) would be obtained, dissolved in water (1 ml water per 10 g of seeds), and added to the seeds to produce a slurry.
(§3) The bottles were capped and then placed in an overhead shaker (set at medium speed for up to 1 hour) so that the seeds were evenly coated with the slurry. The bottles were uncapped and the seeds were sown as described above.
(§4) For the seed treatment process, the blind formulation (the SC formulation without the safener mefenpyr-diethyl) was used as seed treatment as described above.
The compounds were sprayed to the soil surface as an aqueous suspension at an equivalent water application rate of 300 l/ha.
(§5) The combination of herbicide and safener was applied as a tank mix.
(§6) After application, the test plants were kept in the greenhouse under good growth conditions.
(§7) Values in the table below are mean values from at least 3 replicates.

winter wheat, TRZAW [2] = assay: Method A: safener seed treatment, herbicide post-emergence, greenhouse crop damage test; conditions: safener seed treatment 0.5 g/kg only, no herbicide
Description: as §1, §2, §3, §4
Post-emergence application of the herbicide was done when the plants had reached growth stage BBCH11.
as §6, §7

winter wheat, TRZAW [3] = assay: Method C: safener seed treatment, herbicide and safener tank mix post-emergence, greenhouse crop damage test; conditions: no herbicide
Description: as §1, §2, §3, §4
Post-emergence application was done when the plants had reached growth stage BBCH11.
The safener (mefenpyr-diethyl) was formulated as wettable powder (WP).
The compounds were sprayed onto the green parts of the plants as an aqueous suspension at an equivalent water application rate of 300 l/ha.
as §5, §6, §7

[4] = safener seed treatment 0.5 g/kg only

SMILES: CCOC(=O)C1=NN(c2ccc(Cl)cc2Cl)C(C)(C(=O)OCC)C1 (centres unmarked) [Safener seed treatment, ethyl 1-(2,4-dichlorophenyl)-5-(ethoxycarbonyl)-5-methyl-2-pyrazoline-3-carboxylate]
- % crop damage (winter wheat, TRZAW [1]; safener 200 g/ha in tank mix only, pre-emergence, 14 days after application): 5%
- % crop damage (winter wheat, TRZAW [1]; [4]): 2%
- % crop damage (winter wheat, TRZAW [2]): 0%
- % crop damage (winter wheat, TRZAW [3]; safener 200 g/ha in tank mix only, post-emergence, 14 days after application): 5%
- % crop damage (winter wheat, TRZAW [3]; [4]): 0%

Source: US11219209B2, “Method of reducing crop damage” (Bayer Aktiengesellschaft, priority 2018, dated 2022)
